Experiments:
Assay type in all cases: cell-based
[1] = test system: E. coli IMP-14 Mutant 1 (S65G); assay: MIC broth microdilution, recombinant E. coli; conditions: Escherichia coli; IMP-14 S65G; TAN/XER fixed at 4 µg/mL, XER 8 µg/mL in MEM-XER; read-out: Minimal inhibitory concentration
Description: (§1) Genes encoding different acquired IMP-like enzymes suspected to be resistant to XER (blaIMP-6, blaIMP-7, blaIMP-10, blaIMP-14, blaIMP-26, blaIMP-34, and blaIMP-59) were amplified by PCR, and corresponding amplicons were cloned into plasmid pUCP24 and expressed in E. coli TOP10. The following recombinant E. coli strains producing IMP-1, IMP-4, IMP-19, and NDM-1 were used from a previous study ([16]). […] For that purpose, a list of primers was designed and provided as Table S1. […] The nomenclature used in this study was according to the BBL sequence numbering ([52]).
(§2) To assess the inhibitory potency of XER, susceptibility testing was performed by broth microdilution method, determining the minimal inhibitory concentrations (MICs) of different antibiotics or antibiotic plus β-lactamase inhibitor combinations, including cefepime (FEP), imipenem (IPM), meropenem (MEM), and their combinations with XER (FEP-XER, IPM-XER, and MEM-XER). All data obtained with XER-based combinations were compared with data with TAN-based combinations, FEP-TAN, IPM-TAN, and MEM-TAN ([16]). FEP was purchased from Sigma-Aldrich (Saint-Louis, USA), whereas MEM was from HuiChem (Shanghai, China). […] MICs were determined in triplicate in cation-adjusted Mueller-Hinton (MH) broth (Bio-Rad, Marnes-la-Coquette, France) according to the CLSI guidelines ([53]). The results were interpreted according to the decrease in MIC value for the same antibiotic or combination of the corresponding recombinant strain producing the MBL enzyme. […] In a recent phase I clinical evaluation, XER was combined with cefiderocol. However, as this latter β-lactam substrate is known to be poorly hydrolyzed by IMP enzymes, it was not considered for the evaluation of XER inhibitory activity in this study. Instead, carbapenems were used as a substrate to evaluate the β-lactamase IMP activity in the presence or absence of XER and TAN, as it was deemed more specific for the IMP carbapenemase activity.

[2] = test system: E. coli IMP-14 Mutant 2 (H174N); assay: MIC broth microdilution, recombinant E. coli; conditions: Escherichia coli; IMP-14 H174N; TAN/XER fixed at 4 µg/mL, XER 8 µg/mL in MEM-XER; read-out: Minimal inhibitory concentration
Description: as §1, §2

[3] = test system: E. coli IMP-14 Mutant 3 (N178S); assay: MIC broth microdilution, recombinant E. coli; conditions: Escherichia coli; IMP-14 N178S; TAN/XER fixed at 4 µg/mL, XER 8 µg/mL in MEM-XER; read-out: Minimal inhibitory concentration
Description: as §1, §2

[4] = test system: E. coli IMP-14 Mutant 4 (D227Y); assay: MIC broth microdilution, recombinant E. coli; conditions: Escherichia coli; IMP-14 D227Y; TAN/XER fixed at 4 µg/mL, XER 8 µg/mL in MEM-XER; read-out: Minimal inhibitory concentration
Description: as §1, §2

[5] = test system: E. coli IMP-14 Mutant 5 (Y233N); assay: MIC broth microdilution, recombinant E. coli; conditions: Escherichia coli; IMP-14 Y233N; TAN/XER fixed at 4 µg/mL, XER 8 µg/mL in MEM-XER; read-out: Minimal inhibitory concentration
Description: as §1, §2

[6] = test system: E. coli IMP-14; assay: MIC broth microdilution, recombinant E. coli; conditions: Escherichia coli, IMP14; IMP-2-like, multiple substitutions; TAN/XER fixed at 4 µg/mL, XER 8 µg/mL in MEM-XER; read-out: Minimal inhibitory concentration
Description: as §1, §2

[7] = test system: E. coli IMP-1; assay: MIC broth microdilution, recombinant E. coli; conditions: Escherichia coli, IMP1; IMP-1-like; TAN/XER fixed at 4 µg/mL, XER 8 µg/mL in MEM-XER; read-out: Minimal inhibitory concentration
Description: as §1, §2

[8] = test system: E. coli IMP-4; assay: MIC broth microdilution, recombinant E. coli; conditions: Escherichia coli, IMP4; IMP-4 like; TAN/XER fixed at 4 µg/mL, XER 8 µg/mL in MEM-XER; read-out: Minimal inhibitory concentration
Description: as §1, §2

[9] = test system: E. coli IMP-59; assay: MIC broth microdilution, recombinant E. coli; conditions: Escherichia coli, IMP59; IMP-4 like, N233Y; TAN/XER fixed at 4 µg/mL, XER 8 µg/mL in MEM-XER; read-out: Minimal inhibitory concentration
Description: as §1, §2

[10] = test system: E. coli IMP-6; assay: MIC broth microdilution, recombinant E. coli; conditions: Escherichia coli, IMP6; IMP-1-like, S262G; TAN/XER fixed at 4 µg/mL, XER 8 µg/mL in MEM-XER; read-out: Minimal inhibitory concentration
Description: as §1, §2

[11] = test system: E. coli NDM-1* (S262G); assay: MIC broth microdilution, recombinant E. coli; conditions: Escherichia coli, TAN/XER fixed at 4 µg/mL, XER 8 µg/mL in MEM-XER, read-out: Minimal inhibitory concentration
Description: as §1, §2

[12] = test system: E. coli NDM-1; assay: MIC broth microdilution, recombinant E. coli; conditions: Escherichia coli, NDM1; NDM-1-like; TAN/XER fixed at 4 µg/mL, XER 8 µg/mL in MEM-XER; read-out: Minimal inhibitory concentration
Description: as §1, §2

[13] = test system: Enterobacter hormaechei (cluster III) SMART 271; assay: microbe, parasite or virus in culture; conditions: read-out: Minimal inhibitory concentration
Experimental: Most isolates and their respective β-lactamase content were characterized by whole-genome sequencing.
as §2

[14] = test system: E. coli IMP-34; assay: MIC broth microdilution, recombinant E. coli; conditions: Escherichia coli, IMP34; IMP-1-like, E126G; TAN/XER fixed at 4 µg/mL, XER 8 µg/mL in MEM-XER; read-out: Minimal inhibitory concentration
Description: as §1, §2

[15] = test system: E. coli IMP-7; assay: MIC broth microdilution, recombinant E. coli; conditions: Escherichia coli, IMP7; IMP-7-like; TAN/XER fixed at 4 µg/mL, XER 8 µg/mL in MEM-XER; read-out: Minimal inhibitory concentration
Description: as §1, §2

Structure (SMILES)	MIC [1]	MIC [2]	MIC [3]	MIC [4]	MIC [5]	MIC [6]	MIC [7]	MIC [8]	MIC [9]	MIC [10]	MIC [11]	MIC [12]	MIC [13]	MIC [14]	MIC [15]
CO/N=C(\C(=O)N[C@@H]1C(=O)N2C(C(=O)[O-])=C(C[N+]3(C)CCCC3)CS[C@H]12)c1csc(N)n1 [FEP, cefepime]	128 µg/mL	64 µg/mL	128 µg/mL	128 µg/mL	16 µg/mL	64 µg/mL	32 µg/mL	8 µg/mL	8 µg/mL	4 µg/mL	1 µg/mL	4 µg/mL			
C[C@@H](O)[C@H]1C(=O)N2C(C(=O)O)=C(SCCN=CN)C[C@H]12 [IPM, imipenem]	8 µg/mL	2 µg/mL	2 µg/mL	8 µg/mL	32 µg/mL	1 µg/mL	4 µg/mL	1 µg/mL	0.5 µg/mL	≤ 0.25 µg/mL	0.25 µg/mL	2 µg/mL	0.5 µg/mL	0.5 µg/mL	0.25 µg/mL
C[C@@H](O)[C@H]1C(=O)N2C(C(=O)O)=C(S[C@@H]3CN[C@H](C(=O)N(C)C)C3)[C@H](C)[C@H]12 [MEM, meropenem]	8 µg/mL	4 µg/mL	8 µg/mL	8 µg/mL	1 µg/mL	4 µg/mL	8 µg/mL	8 µg/mL	8 µg/mL	64 µg/mL	32 µg/mL	2 µg/mL	0.5 µg/mL	2 µg/mL	2 µg/mL
